Measured values from patent US20240124465A1, “MOLECULES AND METHODS RELATED TO TREATMENT OF DISORDERS ASSOCIATED WITH JAK-2 SIGNALING DYSFUNCTION” (ST. JUDE CHILDREN'S RESEARCH HOSPITAL, priority 2020, published 2024).

What was measured:
Type in all cases: cell-based
MHH-CALL-4 cells = test: Cytotoxicity assay (resazurin, 72 hours); design: AUC: unit not given beside the values; settings: for EC50: MHHCALL4, resazurin; for AUC: area under the dose-response curve
Method: Cytotoxicity assay: MHH-CALL-4 cells were maintained in RPMI1640 medium (Invitrogen) supplemented with 10% FBS (Hyclone), Penicillin/Streptomycin (100 units/mL) and Glutamine (100 μM). 2×10^5 cells were seeded in 100 μl medium/well in 96 well assay plates (Corning 3603). Assays were performed in triplicate; compounds to be screened were added to assay plates from DMSO stock solutions by pin transfer using 50SS pins (V&P Scientific). The assay plates incubated at 37° C. in 5% CO2 for 72 hours. Cells were then incubated for four hours with resazurin (Sigma) solution and read on a Synergy HT plate reader (Biotek, Winooski, VT). High-throughput assay data was analyzed using our in-house Robust Interpretation of Screening Experiments (RISE) application written in Pipeline Pilot (Biovia, v. 17.2.0) and the R program (R Core Team, 2013). All the AUC (area under the dose-response curve) per compound calculated from its dose response curve by RISE protocol. Selected data were plotted and analyzed by GraphPad Prism software v7 using non-linear regression curve fitting.

JAK2 = test: Western blot assay, JAK2 protein degradation; settings: MHH-CALL-4 cells, vehicle control = 100%
Method: (§1) Western blot assay: MHH-CALL-4 Cells were washed twice with ice-cold PBS and lysed in RIPA lysis buffer (Sigma) freshly supplemented with Halt™ Protease Inhibitor Cocktail (ThermoFisher) for 15 minutes on ice. The cell pellet was removed by centrifugation at 13,000 g at 4° C. for 15 minutes. Protein concentration was measured by BCA assay (Thermo Fisher Scientific). Proteins were denatured in NuPAGE LDS 4× sample buffer supplemented with reducing agents (Invitrogen). Typically, 10-20 μg of total protein was loaded per lane on a 4%-12% NUPAGE Bis-Tris gradient gel (Invitrogen) and analyzed by standard immunoblotting and imaged using Li—COR Odyssey CLx (LI-COR Biotechnology, Lincoln, NE). To access the protein degradation, the signal of target protein was normalized by the signal of ACBT and the signal of vehicle control was set as 100%. Primary antibodies used were: JAK1 (Cell Signaling #3332S), JAK2 (#3230S), JAK3 (#8827S), TYK2 (#9312S), GSPT1 (#14980S), CRBN (#71810S), IKZF1 (Santa Cruz Biotechnology, SC-398265) and ACBT (Santa Cruz Biotechnology, SC-47778).

GSPT1 = biological target: T1, GSPT1 (Homo sapiens, UniProt P15170); test: Western blot assay, GSPT1 neosubstrate degradation; settings: MHH-CALL-4 cells, vehicle control = 100%; for remaining activity at 0.1 µM: MHHCALL4, 100 nM, 24 h
T1 construct: endogenous in cells; host or cells: MHH-CALL-4
Method: as §1

JAK3 = biological target: T2, JAK3 (Homo sapiens, UniProt P52333); test: Western blot assay, JAK3 protein degradation; settings: MHHCALL4; 100 nM, 24 h; MHH-CALL-4 cells; vehicle control = 100%; read-out: Target Protein Degradation (% remaining at 100 nM, 24 h) JAK3
T2 construct: endogenous in cells; host or cells: MHH-CALL-4
T2 sequence (P52333 1-1124): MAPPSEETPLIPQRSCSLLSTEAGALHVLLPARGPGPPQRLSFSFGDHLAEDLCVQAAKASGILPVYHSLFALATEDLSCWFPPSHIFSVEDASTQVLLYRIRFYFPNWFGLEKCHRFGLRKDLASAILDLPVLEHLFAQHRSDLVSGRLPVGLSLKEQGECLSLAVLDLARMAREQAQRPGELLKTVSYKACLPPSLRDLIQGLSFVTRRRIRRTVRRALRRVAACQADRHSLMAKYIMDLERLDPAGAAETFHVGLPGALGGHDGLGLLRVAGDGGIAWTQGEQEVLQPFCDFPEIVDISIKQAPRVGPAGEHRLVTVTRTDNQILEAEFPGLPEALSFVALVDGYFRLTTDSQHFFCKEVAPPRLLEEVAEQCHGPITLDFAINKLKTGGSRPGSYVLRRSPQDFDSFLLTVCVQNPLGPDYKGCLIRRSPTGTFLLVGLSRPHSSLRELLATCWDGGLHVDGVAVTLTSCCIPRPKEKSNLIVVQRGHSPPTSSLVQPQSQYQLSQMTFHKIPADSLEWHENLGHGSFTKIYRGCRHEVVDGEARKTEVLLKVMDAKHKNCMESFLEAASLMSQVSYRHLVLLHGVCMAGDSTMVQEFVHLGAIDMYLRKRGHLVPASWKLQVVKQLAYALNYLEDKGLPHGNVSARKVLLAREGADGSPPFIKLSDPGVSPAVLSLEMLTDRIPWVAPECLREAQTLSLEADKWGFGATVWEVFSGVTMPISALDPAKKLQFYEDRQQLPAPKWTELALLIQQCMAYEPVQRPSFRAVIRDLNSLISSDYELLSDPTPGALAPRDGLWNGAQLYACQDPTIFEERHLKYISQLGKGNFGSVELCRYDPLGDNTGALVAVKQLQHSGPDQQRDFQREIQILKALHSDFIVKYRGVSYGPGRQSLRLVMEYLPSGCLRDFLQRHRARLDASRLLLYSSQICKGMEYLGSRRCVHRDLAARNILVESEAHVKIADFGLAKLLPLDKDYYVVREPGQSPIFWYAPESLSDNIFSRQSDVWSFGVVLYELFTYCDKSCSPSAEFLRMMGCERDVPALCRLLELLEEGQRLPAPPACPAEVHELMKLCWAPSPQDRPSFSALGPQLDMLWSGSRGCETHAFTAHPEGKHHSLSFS
Method: as §1

T1 sequence (P15170 whole entry): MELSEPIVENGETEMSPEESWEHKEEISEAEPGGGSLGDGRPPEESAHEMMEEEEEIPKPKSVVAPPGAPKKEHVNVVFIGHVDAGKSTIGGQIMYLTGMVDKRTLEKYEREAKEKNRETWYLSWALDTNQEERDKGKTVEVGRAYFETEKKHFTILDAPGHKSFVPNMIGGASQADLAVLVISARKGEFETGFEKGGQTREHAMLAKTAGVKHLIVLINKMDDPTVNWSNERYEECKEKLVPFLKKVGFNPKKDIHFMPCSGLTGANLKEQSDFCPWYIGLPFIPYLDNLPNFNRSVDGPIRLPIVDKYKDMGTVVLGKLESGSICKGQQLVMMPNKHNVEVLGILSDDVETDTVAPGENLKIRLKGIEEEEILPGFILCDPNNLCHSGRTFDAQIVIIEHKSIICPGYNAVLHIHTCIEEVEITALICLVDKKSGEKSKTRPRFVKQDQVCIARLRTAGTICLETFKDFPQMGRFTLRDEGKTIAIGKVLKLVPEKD

Row | SMILES | EC50 (MHH-CALL-4 cells) | AUC (MHH-CALL-4 cells) | Target Protein Degradation (% remaining at 100 nM, 24 h) JAK2 (JAK2) | remaining activity at 0.1 µM (GSPT1) | remaining activity at 0.1 µM (JAK3) | Neosubstrate Degradation (% remaining at 100 nM, 24 h) GSPT1 (GSPT1)
1 | CCS(=O)(=O)N1CC(CC#N)(n2cc(-c3nc(Nc4ccc(C(=O)NCCCN5CC6CCC5CN6c5ccc(C6CCC(=O)NC6=O)cc5)cc4)nc4[nH]ccc34)cn2)C1 (stereo not drawn) [Compound 54, 4-((4-(1-(3-(cyanomethyl)-1-(ethylsulfonyl)azetidin-3-yl)-1H-pyrazol-4-yl)-7H-pyrrolo[2,3-d]pyrimidin-2-yl)amino)-N-(3-(5-(4-(2,6-dioxopiperidin-3-yl)phenyl)-2,5-diazabicyclo[2.2.2]octan-2-yl)propyl)benzamide] | 6.3 nM | 67 | 62 % remaining | 125% | – | –
2 | CCS(=O)(=O)N1CC(CC#N)(n2cc(-c3nc(Nc4ccc(C(=O)NCCOCCOc5cccc(C6CCC(=O)NC6=O)c5)cc4)nc4[nH]ccc34)cn2)C1 (stereo not drawn) [Compound 9] | 873 nM | 132 | – | – | – | –
3 | CCS(=O)(=O)N1CC(CC#N)(n2cc(-c3nc(Nc4ccc(C(=O)NCCCCNC(=O)COc5ccc(C6CCC(=O)NC6=O)cc5)cc4)nc4[nH]ccc34)cn2)C1 (stereo not drawn) [Compound 15] | > 5500 nM | 156 | 29 % remaining | 78% | – | –
4 | CCS(=O)(=O)N1CC(CC#N)(n2cc(-c3nc(Nc4ccc(C(=O)NCCCN5CCC6(CC5)CCN(c5ccc(C7CCC(=O)NC7=O)cc5)CC6)cc4)nc4[nH]ccc34)cn2)C1 (stereo not drawn) [Compound 51] | 226 nM | 105 | 67 % remaining | – | – | –
5 | CCS(=O)(=O)N1CC(CC#N)(n2cc(-c3nc(Nc4ccc(C(=O)NCCCN5CCC6(CCN(c7ccc(C8CCC(=O)NC8=O)cc7)CC6)C5)cc4)nc4[nH]ccc34)cn2)C1 (stereo not drawn) [Compound 56, 4-((4-(1-(3-(cyanomethyl)-1-(ethylsulfonyl)azetidin-3-yl)-1H-pyrazol-4-yl)-7H-pyrrolo[2,3-d]pyrimidin-2-yl)amino)-N-(3-(8-(4-(2,6-dioxopiperidin-3-yl)phenyl)-2,8-diazaspiro[4.5]decan-2-yl)propyl)benzamide] | 2650 nM | 172 | 58 % remaining | 102% | – | –
6 | CCS(=O)(=O)N1CC(CC#N)(n2cc(-c3nc(Nc4ccc(C(=O)NCCOCCOCCOc5ccc(C6CCC(=O)NC6=O)cc5)cc4)nc4[nH]ccc34)cn2)C1 (stereo not drawn) [Compound 12] | > 5000 nM | 116 | – | – | – | –
7 | CCS(=O)(=O)N1CC(CC#N)(n2cc(-c3nc(Nc4ccc(C(=O)NCCCN5CC6CC5CN6c5ccc(C6CCC(=O)NC6=O)cc5)cc4)nc4[nH]ccc34)cn2)C1 (stereo not drawn) [Compound 48, 4-((4-(1-(3-(cyanomethyl)-1-(ethylsulfonyl)azetidin-3-yl)-1H-pyrazol-4-yl)-7H-pyrrolo[2,3-d]pyrimidin-2-yl)amino)-N-(3-(5-(4-(2,6-dioxopiperidin-3-yl)phenyl)-2,5-diazabicyclo[2.2.1]heptan-2-yl)propyl)benzamide] | 27.3 nM | 80 | 76 % remaining | – | – | –
8 | N#CC[C@H](C1CCCC1)n1cc(-c2nc(Nc3ccc(C(=O)NCCCN4CCN(c5ccc(C6CCC(=O)NC6=O)cc5)CC4)cc3)nc3[nH]ccc23)cn1 (stereo partly drawn) [Compound 38, 4-((4-(1-((R)-2-cyano-1-cyclopentylethyl)-1H-pyrazol-4-yl)-7H-pyrrolo[2,3-d]pyrimidin-2-yl)amino)-N-(3-(4-(4-(2,6-dioxopiperidin-3-yl)phenyl)piperazin-1-yl)propyl)benzamide] | 2.6 nM | 122 | 48 % remaining | 99% | 41% | –
9 | CCCn1cc(-c2nc(Nc3ccc(C(=O)NCCN4CCN(c5cccc6c5C(=O)N(C5CCC(=O)NC5=O)C6=O)CC4)cc3)nc3[nH]ccc23)cn1 (stereo not drawn) [Compound 24] | 83.6 nM | 208 | 93 % remaining | 0% | – | –
10 | CCS(=O)(=O)N1CC(CC#N)(n2cc(-c3nc(Nc4ccc(C(=O)N5CCN(c6ccc(C7CCC(=O)NC7=O)cc6)CC5)cc4)nc4[nH]ccc34)cn2)C1 (stereo not drawn) [Compound 2] | 1 nM | 167 | None | – | – | None
11 | CCS(=O)(=O)C1CC(CC#N)(n2cc(-c3nc(Nc4ccc(C(=O)N5CCN(c6ccc7c(c6)C(=O)N(C6CCC(=O)NC6=O)C7=O)CC5)cc4)nc4[nH]ccc34)cn2)C1 (stereo not drawn) [Compound 21] | 13.9 nM | 118 | 53 % remaining | – | – | –
12 | CCS(=O)(=O)N1CC(CC#N)(n2cc(-c3nc(Nc4ccc(C(=O)NCCCCCNC(=O)COc5ccc(C6CCC(=O)NC6=O)cc5)cc4)nc4[nH]ccc34)cn2)C1 (stereo not drawn) [Compound 16] | > 5700 nM | 136 | – | – | – | –
13 | CCCn1cc(-c2nc(Nc3ccc(C(=O)N4CCN(c5cccc6c5C(=O)N(C5CCC(=O)NC5=O)C6=O)CC4)cc3)nc3[nH]ccc23)cn1 (stereo not drawn) [Compound 26] | 297 nM | 217 | None | – | – | Medium
14 | CCS(=O)(=O)N1CC(CC#N)(n2cc(-c3nc(Nc4ccc(C(=O)NCCCCNc5ccc(C6CCC(=O)NC6=O)cc5)cc4)nc4[nH]ccc34)cn2)C1 (stereo not drawn) [Compound 13] | > 5000 nM | 93 | – | – | – | –
15 | CCS(=O)(=O)N1CC(CC#N)(n2cc(-c3nc(Nc4ccc(C(=O)N5CC6(C5)CN(c5ccc(C7CCC(=O)NC7=O)cc5)C6)cc4)nc4[nH]ccc34)cn2)C1 (stereo not drawn) [Compound 53, 2-(3-(4-(2-((4-(6-(4-(2,6-dioxopiperidin-3-yl)phenyl)-2,6-diazaspiro[3.3]heptane-2-carbonyl)phenyl)amino)-7H-pyrrolo[2,3-d]pyrimidin-4-yl)-1H-pyrazol-1-yl)-1-(ethylsulfonyl)azetidin-3-yl)acetonitrile] | 1.7 nM | 142 | 36 % remaining | 102% | – | –
16 | CCCn1cc(-c2nc(Nc3ccc(C(=O)NCCCN4CCN(c5cccc6c5C(=O)C(C5CCC(=O)NC5=O)C6=O)CC4)cc3)nc3[nH]ccc23)cn1 (stereo not drawn) [Compound 25] | 169 nM | 250 | None | – | – | Medium
